According to PubChem BioAssay AID2060606 (Molecular Pharmacology Branch, DTP, NCI, 2025):

Test system: 922993-354-T-J3-PDC complex spheroids, viability, % test/control
Assay: Anticancer human tumor 922993-354-T-J3-PDC patient-derived endometrial carcinoma cell line growth inhibition [CLK]
Settings: for IC50: curve of first compound; for viability, T/C: stronger effect = lower value; active means viability on the fitted dose curve at most 10% of control; inactive means the rest
How it was run: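 Multi-cell-type spheroids combined patient-derived tumor cells with HUVEC endothelial cells and human mesenchymal stem cells. Paired agents were dosed in half-log steps down from about clinical Cmax, or from 10 microM where Cmax was unknown.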

[1] = second compound 0.0316 µM, first compound 0.0316 µM
[2] = second compound 0.0316 µM, first compound 0.1 µM
[3] = second compound 0.0316 µM, first compound 0.316 µM
[4] = second compound 0.0316 µM, first compound 1 µM
[5] = second compound 0.1 µM, first compound 0.0316 µM
[6] = second compound 0.1 µM, first compound 0.1 µM
[7] = second compound 0.1 µM, first compound 0.316 µM
[8] = second compound 0.1 µM, first compound 1 µM
[9] = second compound 0.316 µM, first compound 0.0316 µM
[10] = second compound 0.316 µM, first compound 0.1 µM
[11] = second compound 0.316 µM, first compound 0.316 µM
[12] = second compound 0.316 µM, first compound 1 µM
[13] = second compound 1 µM, first compound 0.0316 µM
[14] = second compound 1 µM, first compound 0.1 µM
[15] = second compound 1 µM, first compound 0.316 µM
[16] = second compound 1 µM, first compound 1 µM
[17] = second compound 3.16 µM, first compound 0.0316 µM
[18] = second compound 3.16 µM, first compound 0.1 µM
[19] = second compound 3.16 µM, first compound 0.316 µM
[20] = second compound 3.16 µM, first compound 1 µM
[21] = second compound 10 µM, first compound 0.0316 µM
[22] = second compound 10 µM, first compound 0.1 µM
[23] = second compound 10 µM, first compound 0.316 µM
[24] = second compound 10 µM, first compound 1 µM
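Further: spheroids exposed to the agents for 7 days before readout.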

CC(=O)O[C@H]1C(=O)[C@@]2(C)[C@H]([C@H](OC(=O)c3ccccc3)[C@]3(O)C[C@H](OC(=O)[C@H](O)[C@@H](NC(=O)c4ccccc4)c4ccccc4)C(C)=C1C3(C)C)[C@]1(OC(C)=O)CO[C@@H]1C[C@@H]2O + CN1CCN(c2cc(C(=O)Nc3cc4cc(-c5cnn(C)c5)ccc4cn3)ccn2)CC1
< 31.6 nM: IC50 (second compound 0.316 µM) | IC50 (second compound 1 µM) | IC50 (second compound 3.16 µM) | IC50 (second compound 10 µM)
active: viability, T/C [13] 0.1% | viability, T/C [14] 0.47% | viability, T/C [15] 0.12% | viability, T/C [16] 0.07% | viability, T/C (second compound 1 µM, first compound 3.16 µM) 0.06% | viability, T/C (second compound 1 µM, first compound 10 µM) 0.07% | viability, T/C [17] 0.1% | viability, T/C [18] 0.79% | viability, T/C [19] 0.18% | viability, T/C [20] 0.67% | viability, T/C (second compound 3.16 µM, first compound 3.16 µM) 0.76% | viability, T/C (second compound 3.16 µM, first compound 10 µM) 0.11% | viability, T/C [21] 0.12% | viability, T/C [22] 0.14% | viability, T/C [23] 0.2% | viability, T/C [24] 0.16% | viability, T/C (second compound 10 µM, first compound 3.16 µM) 1.02% | viability, T/C (second compound 10 µM, first compound 10 µM) 2.94%
2370 nM: IC50 (second compound 0.1 µM)
inactive: viability, T/C [1] 110% | viability, T/C [2] 126% | viability, T/C [3] 91.4% | viability, T/C [4] 95% | viability, T/C (second compound 0.0316 µM, first compound 3.16 µM) 43.5% | viability, T/C (second compound 0.0316 µM, first compound 10 µM) 36.3% | viability, T/C [5] 94.8% | viability, T/C [6] 100% | viability, T/C [7] 98.3% | viability, T/C [8] 63.1% | viability, T/C (second compound 0.1 µM, first compound 3.16 µM) 50.1% | viability, T/C (second compound 0.1 µM, first compound 10 µM) 30.3% | viability, T/C [9] 26% | viability, T/C [10] 24.9% | viability, T/C [11] 29.8% | viability, T/C [12] 19.9% | viability, T/C (second compound 0.316 µM, first compound 3.16 µM) 16.1% | viability, T/C (second compound 0.316 µM, first compound 10 µM) 14.4%
2880 nM: IC50 (second compound 0.0316 µM)

CCc1c2c(nc3ccc(O)cc13)-c1cc3c(c(=O)n1C2)COC(=O)[C@]3(O)CC + CN1CCN(c2cc(C(=O)Nc3cc4cc(-c5cnn(C)c5)ccc4cn3)ccn2)CC1
inactive: viability, T/C (second compound 0.0316 µM, first compound 0.00316 µM) 96.4% | viability, T/C (second compound 0.0316 µM, first compound 0.01 µM) 75.1% | viability, T/C [1] 16.3% | viability, T/C [2] 16.1% | viability, T/C [3] 16.8% | viability, T/C [4] 24.9% | viability, T/C (second compound 0.1 µM, first compound 0.00316 µM) 84.3% | viability, T/C (second compound 0.1 µM, first compound 0.01 µM) 66.9% | viability, T/C [5] 14.1% | viability, T/C [6] 18.8% | viability, T/C [7] 16.2% | viability, T/C [8] 32.3% | viability, T/C (second compound 0.316 µM, first compound 0.00316 µM) 27.2% | viability, T/C (second compound 0.316 µM, first compound 0.01 µM) 19.2% | viability, T/C [9] 9.9% | viability, T/C [10] 9.85% | viability, T/C [11] 18.8% | viability, T/C [12] 15.8%
active: viability, T/C (second compound 1 µM, first compound 0.00316 µM) 0.1% | viability, T/C (second compound 1 µM, first compound 0.01 µM) 0.13% | viability, T/C [13] 1.37% | viability, T/C [14] 0.07% | viability, T/C [15] 0.87% | viability, T/C [16] 0.33% | viability, T/C (second compound 3.16 µM, first compound 0.00316 µM) 0.08% | viability, T/C (second compound 3.16 µM, first compound 0.01 µM) 0.17% | viability, T/C [17] 0.99% | viability, T/C [18] 1.34% | viability, T/C [19] 1% | viability, T/C [20] 2.82% | viability, T/C (second compound 10 µM, first compound 0.00316 µM) 0.12% | viability, T/C (second compound 10 µM, first compound 0.01 µM) 0.14% | viability, T/C [21] 0.83% | viability, T/C [22] 0.18% | viability, T/C [23] 0.59% | viability, T/C [24] 2.79%
16.6 nM: IC50 (second compound 0.0316 µM)
< 3.16 nM: IC50 (second compound 0.316 µM) | IC50 (second compound 1 µM) | IC50 (second compound 3.16 µM) | IC50 (second compound 10 µM)
15.2 nM: IC50 (second compound 0.1 µM)
